Data taken from patent US20090099158A1, “TETRAHYDROISOQUINOLINE COMPOUNDS AS MODULATORS OF THE HISTAMINE H3 RECEPTOR” (priority 2007, published 2009).

These molecules were tested against T1, cloned human H3 receptors (Homo sapiens, UniProt Q9Y5N1) (assay: H3 Receptor Binding (Human)). Conditions: cloned human H3 receptors stably expressed in SK-N-MC cells; average of the results obtained.
T1 construct: expressed in transfected cells; host or cells: SK-N-MC cells
Procedure: Binding of compounds to the cloned human H3 receptors, stably expressed in SK-N-MC cells, was performed as described by Barbier, A. J. et al. (Br. J. Pharmacol. 2004, 143(5), 649-661). Data for compounds tested in this assay are presented in Table 1 as an average of the results obtained.

T1 sequence (Q9Y5N1 whole entry): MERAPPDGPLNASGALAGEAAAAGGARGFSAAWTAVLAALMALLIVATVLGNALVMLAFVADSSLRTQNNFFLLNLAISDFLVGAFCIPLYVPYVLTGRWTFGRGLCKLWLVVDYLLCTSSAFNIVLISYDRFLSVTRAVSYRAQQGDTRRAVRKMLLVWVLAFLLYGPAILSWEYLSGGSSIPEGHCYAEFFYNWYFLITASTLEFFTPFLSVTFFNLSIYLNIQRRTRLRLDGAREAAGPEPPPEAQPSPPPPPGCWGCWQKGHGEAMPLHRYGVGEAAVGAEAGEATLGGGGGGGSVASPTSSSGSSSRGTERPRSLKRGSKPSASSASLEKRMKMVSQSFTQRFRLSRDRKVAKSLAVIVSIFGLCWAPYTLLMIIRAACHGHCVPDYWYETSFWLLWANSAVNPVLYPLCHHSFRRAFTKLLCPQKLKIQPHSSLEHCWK

| Compound | Ki [nM] |
| --- | --- |
| CN(C)c1ccc(C(=O)N2CCc3cc(C(=O)N4CCN(C5CCC5)CC4)ccc3C2)cc1 [Example 117, [6-(4-Cyclobutyl-piperazine-1-carbonyl)-3,4-dihydro-1H-isoquinolin-2-yl]-(4-dimethylamino-phenyl)-methanone] | 13 |
| O=C(Cc1ccccc1)N1CCc2cc(C(=O)N3CCN(C4CCC4)CC3)ccc2C1 [Example 129, 1-[6-(4-Cyclobutyl-piperazine-1-carbonyl)-3,4-dihydro-1H-isoquinolin-2-yl]-2-phenyl-ethanone] | 18 |
| O=C(Cc1ccc(F)cc1)N1CCc2cc(C(=O)N3CCN(C4CCC4)CC3)ccc2C1 [Example 130, 1-[6-(4-Cyclobutyl-piperazine-1-carbonyl)-3,4-dihydro-1H-isoquinolin-2-yl]-2-(4-fluoro-phenyl)-ethanone] | 10 |
| CC(C)(C)c1ccc(C(=O)N2CCc3cc(C(=O)N4CCN(C5CCC5)CC4)ccc3C2)cc1 [Example 131, [2-(4-tert-Butyl-benzoyl)-1,2,3,4-tetrahydro-isoquinolin-6-yl]-(4-cyclobutyl-piperazin-1-yl)-methanone] | 78 |
| O=C(c1ccc2c(c1)CCN(C(=O)c1ccc(C3CCCCC3)cc1)C2)N1CCN(C2CCC2)CC1 [Example 132, (4-Cyclobutyl-piperazin-1-yl)-[2-(4-cyclohexyl-benzoyl)-1,2,3,4-tetrahydro-isoquinolin-6-yl]-methanone] | 100 |
| O=C(c1ccc2c(c1)CCN(C(=O)C1CCCO1)C2)N1CCCN(C2CCC2)CC1 (stereo not shown) [Example 138, [6-(4-Cyclobutyl-[1,4]diazepane-1-carbonyl)-3,4-dihydro-1H-isoquinolin-2-yl]-(tetrahydro-furan-2-yl)-methanone] | 1 |
| CCCc1ccc(C(=O)N2CCc3cc(C(=O)N4CCCN(C5CCC5)CC4)ccc3C2)cc1 [Example 140, [6-(4-Cyclobutyl-[1,4]diazepane-1-carbonyl)-3,4-dihydro-1H-isoquinolin-2-yl]-(4-propyl-phenyl)-methanone] | 2 |
| COC1CCCC(C(=O)N2CCc3cc(C(=O)N4CCCN(C5CCC5)CC4)ccc3C2)C1 (stereo not shown) [Example 146, [6-(4-Cyclobutyl-[1,4]diazepane-1-carbonyl)-3,4-dihydro-1H-isoquinolin-2-yl]-(3-methoxy-cyclohexyl)-methanone] | 1 |
| CO[C@H]1CC[C@H](C(=O)N2CCc3cc(C(=O)N4CCCN(C5CCC5)CC4)ccc3C2)CC1 [Example 147, trans-[6-(4-Cyclobutyl-[1,4]diazepane-1-carbonyl)-3,4-dihydro-1H-isoquinolin-2-yl]-(4-methoxy-cyclohexyl)-methanone] | 1 |
| CO[C@H]1CC[C@@H](C(=O)N2CCc3cc(C(=O)N4CCCN(C5CCC5)CC4)ccc3C2)CC1 [Example 148, cis-[6-(4-Cyclobutyl-[1,4]diazepane-1-carbonyl)-3,4-dihydro-1H-isoquinolin-2-yl]-(4-methoxy-cyclohexyl)-methanone] | 1 |
| CC(C)N1CCC(C(=O)N2CCc3cc(C(=O)N4CCOCC4)ccc3C2)CC1 [Example 149, [2-(1-Isopropyl-piperidine-4-carbonyl)-1,2,3,4-tetrahydro-isoquinolin-6-yl]-morpholin-4-yl-methanone] | 109 |
| O=C(C1CCCCC1)N1CCc2cc(C(=O)N3CCC[C@H]3CN3CCCC3)ccc2C1 [Example 150, (S)-Cyclohexyl-[6-(2-Pyrrolidin-1-ylmethyl-pyrrolidine-1-carbonyl)-3,4-dihydro-1H-isoquinolin-2-yl]-methanone] | 9 |
| O=C(c1ccc2c(c1)CCN(C(=O)C1CCCCC1)C2)N1CCN(CC2CCCO2)CC1 (stereo not shown) [Example 151, Cyclohexyl-{6-[4-(tetrahydro-furan-2-ylmethyl)-piperazine-1-carbonyl]-3,4-dihydro-1H-isoquinolin-2-yl}-methanone] | 5200 |
| O=C(c1ccc2c(c1)CCN(C(=O)C1CCCCC1)C2)N1CCN2CCCCC2C1 (stereo not shown) [Example 152, Cyclohexyl-[6-(octahydro-pyrido[1,2-a]pyrazine-2-carbonyl)-3,4-dihydro-1H-isoquinolin-2-yl]-methanone] | 9 |
| O=C(c1ccc2c(c1)CCN(C(=O)C1CCCCC1)C2)N1CCN2CCCC2C1 (stereo not shown) [Example 153, Cyclohexyl-[6-(hexahydro-pyrrolo[1,2-a]pyrazine-2-carbonyl)-3,4-dihydro-1H-isoquinolin-2-yl]-methanone] | 54 |
| CN(C)C1CCN(C(=O)c2ccc3c(c2)CCN(C(=O)C2CCCCC2)C3)CC1 [Example 154, Cyclohexyl-[6-(4-dimethylamino-piperidine-1-carbonyl)-3,4-dihydro-1H-isoquinolin-2-yl]-methanone] | 441 |
| CN(C)[C@@H]1CCN(C(=O)c2ccc3c(c2)CCN(C(=O)C2CCCCC2)C3)C1 [Example 155, (R)-Cyclohexyl-[6-(3-dimethylamino-pyrrolidine-1-carbonyl)-3,4-dihydro-1H-isoquinolin-2-yl]-methanone] | 650 |

Next, values leading:

| Ki [nM] | Compound |
| --- | --- |
| 11 | O=C(c1ccc2c(c1)CCN(C(=O)c1ccsc1)C2)N1CCN(C2CCC2)CC1 [Example 115, (4-Cyclobutyl-piperazin-1-yl)-[2-(thiophene-3-carbonyl)-1,2,3,4-tetrahydro-isoquinolin-6-yl]-methanone] |
| 18 | CN(C)c1cccc(C(=O)N2CCc3cc(C(=O)N4CCN(C5CCC5)CC4)ccc3C2)c1 [Example 116, [6-(4-Cyclobutyl-piperazine-1-carbonyl)-3,4-dihydro-1H-isoquinolin-2-yl]-(3-dimethylamino-phenyl)-methanone] |
| 8 | O=C(c1ccc2c(c1)CCN(C(=O)c1ccc(Cl)cc1Cl)C2)N1CCN(C2CCC2)CC1 [Example 118, [6-(4-Cyclobutyl-piperazine-1-carbonyl)-3,4-dihydro-1H-isoquinolin-2-yl]-(2,4-dichloro-phenyl)-methanone] |
| 11 | O=C(c1ccc2c(c1)CCN(C(=O)c1cccc(Cl)c1)C2)N1CCN(C2CCC2)CC1 [Example 119, (3-Chloro-phenyl)-[6-(4-cyclobutyl-piperazine-1-carbonyl)-3,4-dihydro-1H-isoquinolin-2-yl]-methanone] |
| 12 | Cc1cccc(C(=O)N2CCc3cc(C(=O)N4CCN(C5CCC5)CC4)ccc3C2)c1 [Example 120, [6-(4-Cyclobutyl-piperazine-1-carbonyl)-3,4-dihydro-1H-isoquinolin-2-yl]-m-tolyl-methanone] |
| 5 | O=C(c1ccc2c(c1)CCN(C(=O)c1cccc([N+](=O)[O-])c1)C2)N1CCN(C2CCC2)CC1 [Example 121, [6-(4-Cyclobutyl-piperazine-1-carbonyl)-3,4-dihydro-1H-isoquinolin-2-yl]-(3-nitro-phenyl)-methanone] |
| 7 | O=C(c1ccc2c(c1)CCN(C(=O)c1ccc([N+](=O)[O-])cc1)C2)N1CCN(C2CCC2)CC1 [Example 122, [6-(4-Cyclobutyl-piperazine-1-carbonyl)-3,4-dihydro-1H-isoquinolin-2-yl]-(4-nitro-phenyl)-methanone] |
| 16 | O=C(c1ccc2c(c1)CCN(C(=O)c1ccc(O)cc1)C2)N1CCN(C2CCC2)CC1 [Example 123, [6-(4-Cyclobutyl-piperazine-1-carbonyl)-3,4-dihydro-1H-isoquinolin-2-yl]-(4-hydroxy-phenyl)-methanone] |
| 24 | O=C(c1ccc2c(c1)CCN(C(=O)c1ccc(F)c(O)c1)C2)N1CCN(C2CCC2)CC1 [Example 124, (4-Cyclobutyl-piperazin-1-yl)-[2-(4-fluoro-3-hydroxy-benzoyl)-1,2,34-tetrahydro-isoquinolin-6-yl]-methanone] |
| 17 | O=C(c1ccc2c(c1)CCN(C(=O)c1ccc(F)cc1)C2)N1CCN(C2CCC2)CC1 [Example 125, (4-Cyclobutyl-piperazin-1-yl)-[2-(4-fluoro-benzoyl)-1,2,3,4-tetrahydro-isoquinolin-6-yl]-methanone] |
| 9 | O=C(c1ccc2c(c1)CCN(C(=O)c1ccc(F)cc1F)C2)N1CCN(C2CCC2)CC1 [Example 126, (4-Cyclobutyl-piperazin-1-yl)-[2-(2,4-difluoro-benzoyl)-1,2,3,4-tetrahydro-isoquinolin-6-yl]-methanone] |
| 27 | Cc1ccc(C(=O)N2CCc3cc(C(=O)N4CCN(C5CCC5)CC4)ccc3C2)cc1F [Example 127, (4-Cyclobutyl-piperazin-1-yl)-[2-(3-fluoro-4-methyl-benzoyl)-1,2,3,4-tetrahydro-isoquinolin-6-yl]-methanone] |
| 19 | O=C(c1ccc2c(c1)CCN(C(=O)c1ccc(F)c(Cl)c1)C2)N1CCN(C2CCC2)CC1 [Example 128, [2-(3-Chloro-4-fluoro-benzoyl)-1,2,3,4-tetrahydro-isoquinolin-6-yl]-(4-cyclobutyl-piperazin-1-yl)-methanone] |
| 1 | O=C(c1ccc2c(c1)CCN(C(=O)c1ccc(F)cc1)C2)N1CCCN(C2CCC2)CC1 [Example 134, [6-(4-Cyclobutyl-[1,4]diazepane-1-carbonyl)-3,4-dihydro-1H-isoquinolin-2-yl]-(4-fluoro-phenyl)-methanone] |
| 1 | O=C(c1ccc2c(c1)CCN(C(=O)c1ccc(F)c(O)c1)C2)N1CCCN(C2CCC2)CC1 [Example 141, [6-(4-Cyclobutyl-[1,4]diazepane-1-carbonyl)-3,4-dihydro-1H-isoquinolin-2-yl]-(4-fluoro-3-hydroxy-phenyl)-methanone] |
| 1 | O=C(c1ccc2c(c1)CCN(C(=O)c1ccc(Cl)cc1Cl)C2)N1CCCN(C2CCC2)CC1 [Example 143, [6-(4-Cyclobutyl-[1,4]diazepane-1-carbonyl)-3,4-dihydro-1H-isoquinolin-2-yl]-(2,4-dichloro-phenyl)-methanone] |
| 1 | O=C(c1ccc2c(c1)CCN(C(=O)c1ccc(F)c(Cl)c1)C2)N1CCCN(C2CCC2)CC1 [Example 145, (3-Chloro-4-fluoro-phenyl)-[6-(4-cyclobutyl-[1,4]diazepane-1-carbonyl)-3,4-dihydro-1H-isoquinolin-2-yl]-methanone] |
